From publication PMC6008489 (Bioorganic & Medicinal Chemistry, 2018)
Read-outs that look alike come from different tables or passages of the source.

Legend:
[1] = target: T1, MET (Homo sapiens, UniProt P08581); assay: 26-kinase panel mobility shift assay, single concentration; assay type: biochemical; conditions: read-out: % Inhibition MET
T1 construct: purchased Perkin Elmer (ProfilerPro assay kit 1)
Method: (§1) In order to test the biochemical activity of our fragment library, a panel of 26 structurally diverse protein kinases was used.
Mobility Shift Assay Protocol
(§2) Screening of 26 kinases using a mobility shift assay
(§3) A mobility shift assay to determine kinase inhibition was carried out using a
(§4) modified version of the ProfilerPro assay kit 1 (Perkin Elmer, Coventry, UK)
(§5) including MPS1 and Aurora B. Each kit contained an enzyme plate, a substrate
(§6) plate, reconstitution buffer, 1 M DTT, protease inhibitor cocktail and termination
(§7) buffer. Test compounds were added as a solution in DMSO.
final concentration. […] The
(§8) peptide phosphorylation assay was carried out as per the manufacturer’s
(§9) instructions. The electrophoretic separation and analysis of the phosphorylated
(§10) and non-phosphorylated peptides was carried out on a 4-sipper chip using a
(§11) LabChip EZReader II (Perkin Elmer). Results were expressed as % inhibition of
(§12) peptide phosphorylation relative to control wells for 0 % (no test compound) and
(§13) 100 % (no ATP) inhibition. The percentage inhibition was calculated using the
(§14) % Inhibition = [1 - (% Conversion Sample / % Conversion 0% Inhibition Control)] x 100

[2] = target: T2, p38 (Homo sapiens, UniProt Q16539); assay: as above; assay type: biochemical; conditions: read-out: % Inhibition p38
T2 construct: purchased Perkin Elmer (ProfilerPro assay kit 1)
Method: as §1
Mobility Shift Assay Protocol
as §2, §3, §4, §5, §6, §7
final concentration. […] The
as §8, §9, §10, §11, §12, §13, §14

[3] = target: T3, AKT1 (Homo sapiens, UniProt P31749); assay: as above; assay type: biochemical; conditions: read-out: % Inhibition AKT1
T3 construct: purchased Perkin Elmer ProfilerPro assay kit 1
Method: Mobility Shift Assay Protocol
as §2, §3, §4, §5, §6, §7, §8, §9, §10, §11, §12, §13, §14

[4] = target: T4, Erk1 (Homo sapiens, UniProt P27361); assay: as above; assay type: biochemical; conditions: read-out: % Inhibition Erk1
T4 construct: purchased Perkin Elmer (ProfilerPro assay kit 1)
Method: as §3, §4, §5, §6, §7, §8, §9, §10, §11, §12, §13, §14

[5] = target: T5, CHK2 (Homo sapiens, UniProt O96017); assay: as above; assay type: biochemical; conditions: read-out: % Inhibition CHK2
T5 construct: purchased Perkin Elmer (ProfilerPro assay kit 1)
Method: as §3, §4, §5, §6, §7, §8, §9, §10, §11, §12, §13, §14

[6] = target: T6, CHK1 (Homo sapiens, UniProt O14757); assay: as above; assay type: biochemical; conditions: read-out: % Inhibition CHK1
T6 construct: purchased Perkin Elmer ProfilerPro assay kit 1
T6 sequence (O14757 1-476): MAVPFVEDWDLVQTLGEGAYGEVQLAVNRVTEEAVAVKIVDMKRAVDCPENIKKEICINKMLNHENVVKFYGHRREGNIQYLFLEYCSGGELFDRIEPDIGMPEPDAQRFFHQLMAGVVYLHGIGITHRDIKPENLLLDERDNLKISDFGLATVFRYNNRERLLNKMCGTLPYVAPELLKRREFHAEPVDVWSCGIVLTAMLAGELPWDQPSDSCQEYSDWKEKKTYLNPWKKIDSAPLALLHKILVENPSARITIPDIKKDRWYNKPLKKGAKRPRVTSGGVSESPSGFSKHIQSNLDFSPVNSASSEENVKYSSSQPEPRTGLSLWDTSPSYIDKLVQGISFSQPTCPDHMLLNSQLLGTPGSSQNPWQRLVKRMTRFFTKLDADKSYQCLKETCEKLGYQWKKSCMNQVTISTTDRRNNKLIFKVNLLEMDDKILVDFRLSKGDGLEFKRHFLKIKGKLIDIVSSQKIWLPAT
Method: as §3, §4, §5, §6, §7, §8, §9, §10, §11, §12, §13, §14

[7] = target: T7, Erk2 (Homo sapiens, UniProt P28482); assay: as above; assay type: biochemical; conditions: read-out: % Inhibition Erk2
T7 construct: purchased Perkin Elmer (ProfilerPro assay kit 1)
Method: as §3, §4, §5, §6, §7, §8, §9, §10, §11, §12, §13, §14

[8] = target: AurB (Homo sapiens, UniProt Q96GD4); assay: as above; assay type: biochemical; conditions: read-out: % Inhibition AurB
Method: Mobility Shift Assay Protocol
as §2, §3, §4, §5, §6, §7, §8, §9, §10, §11, §12, §13, §14

[9] = target: T8, PKD2 (Homo sapiens, UniProt Q9BZL6); assay: as above; assay type: biochemical; conditions: read-out: % Inhibition PKD2
T8 construct: purchased Perkin Elmer (ProfilerPro assay kit 1)
T8 sequence (Q9BZL6 1-878): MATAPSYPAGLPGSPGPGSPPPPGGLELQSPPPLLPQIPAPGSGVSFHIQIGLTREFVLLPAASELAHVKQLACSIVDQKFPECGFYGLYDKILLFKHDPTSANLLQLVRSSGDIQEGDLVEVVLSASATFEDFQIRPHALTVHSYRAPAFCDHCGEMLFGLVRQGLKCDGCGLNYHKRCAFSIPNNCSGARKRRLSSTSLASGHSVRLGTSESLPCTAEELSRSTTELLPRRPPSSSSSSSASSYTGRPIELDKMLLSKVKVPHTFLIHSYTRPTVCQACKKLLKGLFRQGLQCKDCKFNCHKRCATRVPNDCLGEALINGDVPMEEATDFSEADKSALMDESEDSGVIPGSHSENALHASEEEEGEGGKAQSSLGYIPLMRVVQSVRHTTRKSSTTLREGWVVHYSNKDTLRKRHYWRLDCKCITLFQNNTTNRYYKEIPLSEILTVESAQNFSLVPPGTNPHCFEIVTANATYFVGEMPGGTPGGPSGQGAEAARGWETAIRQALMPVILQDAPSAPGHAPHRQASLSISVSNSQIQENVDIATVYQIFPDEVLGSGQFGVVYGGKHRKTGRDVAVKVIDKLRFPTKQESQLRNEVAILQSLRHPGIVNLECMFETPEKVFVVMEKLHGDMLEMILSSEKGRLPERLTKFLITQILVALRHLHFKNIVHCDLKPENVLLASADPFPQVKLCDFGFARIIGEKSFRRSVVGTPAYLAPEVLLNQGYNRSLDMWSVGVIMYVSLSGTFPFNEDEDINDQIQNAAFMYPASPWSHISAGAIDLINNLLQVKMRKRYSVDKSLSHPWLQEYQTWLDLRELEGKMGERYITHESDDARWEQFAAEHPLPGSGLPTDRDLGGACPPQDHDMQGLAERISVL
Method: as §1, §2, §3, §4, §5, §6, §7, §8, §9, §10, §11, §12, §13, §14

[10] = target: T9, LYN (Homo sapiens, UniProt P07948); assay: as above; assay type: biochemical; conditions: read-out: % Inhibition LYN
T9 construct: purchased Perkin Elmer (ProfilerPro assay kit 1)
Method: as §3, §4, §5, §6, §7, §8, §9, §10, §11, §12, §13, §14

[11] = target: T10, MPS1 (Homo sapiens, UniProt P33981); assay: biochemical; conditions: read-out: % Inhibition MPS1
T10 sequence (P33981 1-857): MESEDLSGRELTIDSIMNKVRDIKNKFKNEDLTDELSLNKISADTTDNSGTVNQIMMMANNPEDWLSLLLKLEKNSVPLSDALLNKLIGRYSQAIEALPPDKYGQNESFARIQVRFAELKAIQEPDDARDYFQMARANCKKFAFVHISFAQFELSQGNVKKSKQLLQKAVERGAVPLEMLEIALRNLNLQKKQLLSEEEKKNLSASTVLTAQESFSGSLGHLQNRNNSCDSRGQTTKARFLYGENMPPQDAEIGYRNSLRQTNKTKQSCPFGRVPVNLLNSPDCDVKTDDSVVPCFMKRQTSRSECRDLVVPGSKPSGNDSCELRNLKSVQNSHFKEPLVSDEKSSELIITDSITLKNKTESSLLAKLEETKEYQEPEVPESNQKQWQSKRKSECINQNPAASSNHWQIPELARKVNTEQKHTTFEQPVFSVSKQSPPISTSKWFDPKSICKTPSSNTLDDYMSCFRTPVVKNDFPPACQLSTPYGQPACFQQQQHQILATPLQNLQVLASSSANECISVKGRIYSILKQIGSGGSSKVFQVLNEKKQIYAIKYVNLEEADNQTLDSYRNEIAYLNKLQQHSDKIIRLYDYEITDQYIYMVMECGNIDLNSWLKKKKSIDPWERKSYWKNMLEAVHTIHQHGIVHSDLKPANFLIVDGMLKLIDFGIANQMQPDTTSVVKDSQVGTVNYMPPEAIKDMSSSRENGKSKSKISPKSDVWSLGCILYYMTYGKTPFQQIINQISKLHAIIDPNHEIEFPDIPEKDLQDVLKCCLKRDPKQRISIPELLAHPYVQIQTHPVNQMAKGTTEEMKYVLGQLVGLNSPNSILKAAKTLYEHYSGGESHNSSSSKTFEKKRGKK
Method: as §1, §2, §3, §4, §5, §6, §7, §8, §9, §10, §11, §12, §13, §14

[12] = target: T11, MSK1 (Homo sapiens, UniProt O75582); assay: 26-kinase panel mobility shift assay, single concentration; assay type: biochemical; conditions: read-out: % Inhibition MSK1
T11 construct: purchased Perkin Elmer (ProfilerPro assay kit 1)
Method: as §1
Mobility Shift Assay Protocol
as §2, §3, §4, §5, §6, §7
final concentration. […] The
as §8, §9, §10, §11, §12, §13, §14

[13] = target: T12, RSK1 (Homo sapiens, UniProt Q15418); assay: as above; assay type: biochemical; conditions: read-out: % Inhibition RSK1
T12 construct: purchased Perkin Elmer (ProfilerPro assay kit 1)
T12 sequence (Q15418 whole entry): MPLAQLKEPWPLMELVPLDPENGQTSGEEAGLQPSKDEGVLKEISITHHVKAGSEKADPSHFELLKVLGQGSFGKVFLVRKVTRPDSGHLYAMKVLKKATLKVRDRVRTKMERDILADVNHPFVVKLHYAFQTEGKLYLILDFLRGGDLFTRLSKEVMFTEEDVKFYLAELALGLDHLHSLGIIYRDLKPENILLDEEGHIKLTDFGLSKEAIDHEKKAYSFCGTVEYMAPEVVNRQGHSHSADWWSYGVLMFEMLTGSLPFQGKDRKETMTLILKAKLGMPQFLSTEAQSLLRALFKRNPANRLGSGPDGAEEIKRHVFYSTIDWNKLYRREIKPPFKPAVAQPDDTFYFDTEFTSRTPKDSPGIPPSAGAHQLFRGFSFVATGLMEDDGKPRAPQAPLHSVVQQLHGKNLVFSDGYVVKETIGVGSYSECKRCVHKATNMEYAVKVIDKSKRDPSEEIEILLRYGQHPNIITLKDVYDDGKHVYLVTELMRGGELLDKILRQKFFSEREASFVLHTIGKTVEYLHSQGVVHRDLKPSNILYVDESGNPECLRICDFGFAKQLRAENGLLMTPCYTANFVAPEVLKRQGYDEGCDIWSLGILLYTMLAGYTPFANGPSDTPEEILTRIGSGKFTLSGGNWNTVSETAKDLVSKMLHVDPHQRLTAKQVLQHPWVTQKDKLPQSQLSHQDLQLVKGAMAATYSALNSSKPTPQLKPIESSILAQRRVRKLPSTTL
Method: Mobility Shift Assay Protocol
as §2, §3, §4, §5, §6, §7, §8, §9, §10, §11, §12, §13, §14

T9 sequence (P07948 whole entry): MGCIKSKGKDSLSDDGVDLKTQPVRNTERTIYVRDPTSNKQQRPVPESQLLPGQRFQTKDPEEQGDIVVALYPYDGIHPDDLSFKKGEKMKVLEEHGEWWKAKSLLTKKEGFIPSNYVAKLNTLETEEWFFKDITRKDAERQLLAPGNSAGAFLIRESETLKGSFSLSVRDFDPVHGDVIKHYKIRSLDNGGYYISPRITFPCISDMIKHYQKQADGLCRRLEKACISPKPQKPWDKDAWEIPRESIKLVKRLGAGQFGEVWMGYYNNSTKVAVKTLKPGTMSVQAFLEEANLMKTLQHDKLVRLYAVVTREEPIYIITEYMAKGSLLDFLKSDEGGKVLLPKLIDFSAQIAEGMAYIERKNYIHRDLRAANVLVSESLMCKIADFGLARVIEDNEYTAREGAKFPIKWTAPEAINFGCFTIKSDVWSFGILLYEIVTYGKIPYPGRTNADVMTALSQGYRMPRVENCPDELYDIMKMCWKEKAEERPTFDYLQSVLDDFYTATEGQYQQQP
T5 sequence (O96017 whole entry): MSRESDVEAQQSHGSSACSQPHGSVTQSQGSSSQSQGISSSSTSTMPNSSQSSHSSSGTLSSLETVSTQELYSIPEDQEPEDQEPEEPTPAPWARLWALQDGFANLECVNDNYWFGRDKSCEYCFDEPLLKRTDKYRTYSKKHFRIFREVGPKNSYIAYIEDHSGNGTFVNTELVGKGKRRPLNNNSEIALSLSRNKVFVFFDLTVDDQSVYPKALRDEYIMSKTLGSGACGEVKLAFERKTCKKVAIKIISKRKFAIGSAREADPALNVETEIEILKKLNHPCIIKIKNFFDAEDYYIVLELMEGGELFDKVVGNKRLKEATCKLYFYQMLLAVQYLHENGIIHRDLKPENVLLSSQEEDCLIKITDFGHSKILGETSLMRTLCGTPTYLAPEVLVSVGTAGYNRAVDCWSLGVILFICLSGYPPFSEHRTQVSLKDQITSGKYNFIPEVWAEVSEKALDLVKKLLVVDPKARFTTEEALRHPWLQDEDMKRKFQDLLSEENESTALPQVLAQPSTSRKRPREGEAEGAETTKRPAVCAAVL
T4 sequence (P27361 whole entry): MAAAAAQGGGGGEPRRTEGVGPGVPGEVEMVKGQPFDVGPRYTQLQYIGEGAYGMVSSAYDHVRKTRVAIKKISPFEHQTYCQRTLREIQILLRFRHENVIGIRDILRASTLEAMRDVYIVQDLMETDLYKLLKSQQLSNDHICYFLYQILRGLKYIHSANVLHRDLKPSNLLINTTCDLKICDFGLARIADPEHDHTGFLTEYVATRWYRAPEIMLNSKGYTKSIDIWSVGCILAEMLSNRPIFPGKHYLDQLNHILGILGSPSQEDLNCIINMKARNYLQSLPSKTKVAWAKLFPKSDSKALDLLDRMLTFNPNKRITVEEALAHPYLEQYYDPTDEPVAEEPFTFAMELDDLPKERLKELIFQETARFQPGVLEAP
T7 sequence (P28482 whole entry): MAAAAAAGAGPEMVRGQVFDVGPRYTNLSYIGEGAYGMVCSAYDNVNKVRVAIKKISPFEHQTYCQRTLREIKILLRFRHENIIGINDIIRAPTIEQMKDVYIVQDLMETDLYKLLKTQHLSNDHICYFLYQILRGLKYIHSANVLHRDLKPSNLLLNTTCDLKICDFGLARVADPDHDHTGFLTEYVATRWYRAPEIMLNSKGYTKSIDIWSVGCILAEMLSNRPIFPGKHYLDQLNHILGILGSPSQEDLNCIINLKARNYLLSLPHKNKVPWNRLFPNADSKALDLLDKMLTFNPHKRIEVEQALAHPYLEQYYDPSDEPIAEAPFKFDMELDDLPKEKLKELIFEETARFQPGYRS
T11 sequence (O75582 whole entry): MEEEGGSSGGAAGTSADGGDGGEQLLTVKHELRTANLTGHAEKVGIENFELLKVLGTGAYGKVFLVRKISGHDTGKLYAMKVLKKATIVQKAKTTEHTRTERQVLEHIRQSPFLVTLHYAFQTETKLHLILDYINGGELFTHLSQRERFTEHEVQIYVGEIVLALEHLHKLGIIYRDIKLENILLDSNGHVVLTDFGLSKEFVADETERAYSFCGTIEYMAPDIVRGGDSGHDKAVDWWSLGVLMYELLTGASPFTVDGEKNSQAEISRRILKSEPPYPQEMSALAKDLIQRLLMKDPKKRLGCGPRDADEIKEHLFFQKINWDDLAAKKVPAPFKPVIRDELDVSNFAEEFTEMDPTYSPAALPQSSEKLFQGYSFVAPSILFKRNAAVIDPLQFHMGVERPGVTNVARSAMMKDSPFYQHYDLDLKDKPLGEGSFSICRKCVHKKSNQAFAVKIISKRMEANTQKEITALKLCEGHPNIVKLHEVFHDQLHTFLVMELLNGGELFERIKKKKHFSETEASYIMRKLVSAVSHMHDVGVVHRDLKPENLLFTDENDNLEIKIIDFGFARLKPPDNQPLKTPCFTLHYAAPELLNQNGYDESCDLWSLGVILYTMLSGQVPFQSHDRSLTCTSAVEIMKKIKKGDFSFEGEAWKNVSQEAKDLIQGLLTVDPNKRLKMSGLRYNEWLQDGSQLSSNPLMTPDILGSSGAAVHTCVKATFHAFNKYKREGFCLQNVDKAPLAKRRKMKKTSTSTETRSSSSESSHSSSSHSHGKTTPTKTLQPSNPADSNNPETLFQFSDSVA
T1 sequence (P08581 25-1390): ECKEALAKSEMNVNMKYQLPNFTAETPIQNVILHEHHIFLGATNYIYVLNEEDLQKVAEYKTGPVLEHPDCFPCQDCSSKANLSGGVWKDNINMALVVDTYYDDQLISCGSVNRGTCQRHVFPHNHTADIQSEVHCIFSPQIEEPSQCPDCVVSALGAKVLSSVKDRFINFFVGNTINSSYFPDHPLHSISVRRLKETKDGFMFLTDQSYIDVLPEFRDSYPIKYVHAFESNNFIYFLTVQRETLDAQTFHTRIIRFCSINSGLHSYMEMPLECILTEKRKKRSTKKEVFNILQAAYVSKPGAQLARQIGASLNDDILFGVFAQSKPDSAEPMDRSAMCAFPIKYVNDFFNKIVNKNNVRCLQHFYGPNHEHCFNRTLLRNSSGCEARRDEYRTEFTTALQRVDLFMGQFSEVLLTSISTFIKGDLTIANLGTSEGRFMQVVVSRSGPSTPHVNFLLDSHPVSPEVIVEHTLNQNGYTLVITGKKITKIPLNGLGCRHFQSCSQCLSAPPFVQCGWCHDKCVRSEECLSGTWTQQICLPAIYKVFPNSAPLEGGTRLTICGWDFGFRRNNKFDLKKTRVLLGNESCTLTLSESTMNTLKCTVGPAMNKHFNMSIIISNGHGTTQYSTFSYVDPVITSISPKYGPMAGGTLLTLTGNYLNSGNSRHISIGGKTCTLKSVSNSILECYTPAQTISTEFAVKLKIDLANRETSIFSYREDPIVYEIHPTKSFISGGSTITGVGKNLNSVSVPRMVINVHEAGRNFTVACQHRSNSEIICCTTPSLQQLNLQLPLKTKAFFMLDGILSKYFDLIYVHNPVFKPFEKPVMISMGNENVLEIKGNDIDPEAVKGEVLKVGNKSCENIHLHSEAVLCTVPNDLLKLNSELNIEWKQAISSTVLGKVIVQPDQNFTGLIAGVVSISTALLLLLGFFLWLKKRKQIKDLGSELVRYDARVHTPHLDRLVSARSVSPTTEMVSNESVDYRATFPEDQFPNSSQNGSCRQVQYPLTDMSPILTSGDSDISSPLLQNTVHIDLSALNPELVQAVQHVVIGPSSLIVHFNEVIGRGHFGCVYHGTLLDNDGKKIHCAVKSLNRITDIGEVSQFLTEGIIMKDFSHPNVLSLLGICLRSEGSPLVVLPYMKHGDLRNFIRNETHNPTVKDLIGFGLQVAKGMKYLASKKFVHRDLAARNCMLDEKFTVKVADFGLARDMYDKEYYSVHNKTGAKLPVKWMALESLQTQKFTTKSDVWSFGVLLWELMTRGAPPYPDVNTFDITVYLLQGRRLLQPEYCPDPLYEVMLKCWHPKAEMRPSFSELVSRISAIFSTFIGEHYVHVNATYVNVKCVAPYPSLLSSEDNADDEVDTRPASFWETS
Chain of AurB (Q96GD4 whole entry): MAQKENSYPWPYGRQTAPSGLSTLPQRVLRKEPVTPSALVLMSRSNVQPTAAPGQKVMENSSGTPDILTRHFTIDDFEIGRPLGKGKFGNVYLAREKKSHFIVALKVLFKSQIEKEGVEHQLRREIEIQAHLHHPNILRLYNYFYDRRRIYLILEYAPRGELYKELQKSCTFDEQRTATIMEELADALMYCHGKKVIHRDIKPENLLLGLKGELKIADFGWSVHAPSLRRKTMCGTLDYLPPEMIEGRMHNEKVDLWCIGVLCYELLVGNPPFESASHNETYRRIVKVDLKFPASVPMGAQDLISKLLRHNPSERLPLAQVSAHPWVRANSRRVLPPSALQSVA

## CNc1nccc(-c2c[nH]c(=O)c(N)c2)n1 [Compound 7]
[1]
  inhibition at 100 µM: 76%
[2]
  inhibition at 100 µM: 25%
[3]
  inhibition at 100 µM: 89%
[4]
  inhibition at 100 µM: 52%
[5]
  inhibition at 100 µM: 98%
[6]
  inhibition at 100 µM: 79%
[7]
  inhibition at 100 µM: 53%
[8]
  inhibition at 100 µM: 94%
[9]
  inhibition at 100 µM: 70%
[10]
  inhibition at 100 µM: 63%
[11]; compound at 100 µM
  inhibition at 100 µM: 71%
[12]
  inhibition at 100 µM: 94%
[13]
  inhibition at 100 µM: 91%

## Nc1cc(-c2ccnc(NC3CC3)n2)c[nH]c1=O [Compound 8]
[1]
  inhibition at 100 µM: 26%
[2]
  inhibition at 100 µM: 12%
[3]
  inhibition at 100 µM: 18%
[4]
  inhibition at 100 µM: 46%
[5]
  inhibition at 100 µM: 61%
[6]
  inhibition at 100 µM: 26%
[7]
  inhibition at 100 µM: 45%
[8]
  inhibition at 100 µM: 79%
[9]
  inhibition at 100 µM: 81%
[10]
  inhibition at 100 µM: 42%
[11]; compound at 100 µM
  inhibition at 100 µM: 87%
[12]
  inhibition at 100 µM: 27%
[13]
  inhibition at 100 µM: 89%

## O=C(Nc1cc(-c2ccnc(NC3CC3)n2)c[nH]c1=O)c1ccccc1 [Compound 24]
[1]
  inhibition at 30 µM: 65%
[2]
  inhibition at 30 µM: 36%
[3]
  inhibition at 30 µM: 73%
[4]
  inhibition at 30 µM: 33%
[5]
  inhibition at 30 µM: 71%
[6]
  inhibition at 30 µM: 0%
[7]
  inhibition at 30 µM: 37%
[8]
  inhibition at 30 µM: 91%
[9]
  inhibition at 30 µM: 69%
[10]
  inhibition at 30 µM: 86%
[11]; compound at 30 µM
  inhibition at 30 µM: 76%
[12]
  inhibition at 30 µM: 83%
[13]
  inhibition at 30 µM: 98%

## Cc1nc(O)c(N)cc1-c1ccncc1 [Compound 15, 3-Amino-6-methyl-5-(pyridin-4-yl)pyridin-2-one]
[1]
  inhibition at 100 µM: 14%
[2]
  inhibition at 100 µM: 8%
[3]
  inhibition at 100 µM: 10%
[4]
  inhibition at 100 µM: 11%
[5]
  inhibition at 100 µM: 42%
[6]
  inhibition at 100 µM: 4%
[7]
  inhibition at 100 µM: 11%
[8]
  inhibition at 100 µM: 77%
[9]
  inhibition at 100 µM: 8%
[10]
  inhibition at 100 µM: 10%
[11]; compound at 100 µM
  inhibition at 100 µM: 20%
[12]
  inhibition at 100 µM: 14%
[13]
  inhibition at 100 µM: 17%

## Cn1cc(-c2c[nH]c(=O)c(N)c2)cn1 [Compound 2, 3-Amino-5-(1-methyl-1H-pyrazol-4-yl)pyridin-2(1H)-one]
[1]
  inhibition at 100 µM: 81%
[2]
  inhibition at 100 µM: 39%
[3]
  inhibition at 100 µM: 97%
[4]
  inhibition at 100 µM: 62%
[5]
  inhibition at 100 µM: 99%
[6]
  inhibition at 100 µM: 77%
[7]
  inhibition at 100 µM: 68%
[8]
  inhibition at 100 µM: 96%
[9]
  inhibition at 100 µM: 67%
[10]
  inhibition at 100 µM: 49%
[11]; compound at 100 µM
  inhibition at 100 µM: 41%
[12]
  inhibition at 100 µM: 95%
[13]
  inhibition at 100 µM: 89%

## Nc1ccc[nH]c1=O [Compound 1, 3-aminopyridin-2-one]
[1]
  inhibition at 100 µM: 33%
[2]
  inhibition at 100 µM: 9%
[3]
  inhibition at 100 µM: 42%
[4]
  inhibition at 100 µM: 9%
[5]
  inhibition at 100 µM: 49%
[6]
  inhibition at 100 µM: 37%
[7]
  inhibition at 100 µM: 3%
[8]
  inhibition at 100 µM: 20%
[9]
  inhibition at 100 µM: 10%
[10]
  inhibition at 100 µM: 15%
[11]
  inhibition at 100 µM: 0%
[12]
  inhibition at 100 µM: 26%
[13]
  inhibition at 100 µM: 19%

## CN1CCN(c2ccc(C(=O)Nc3cc(-c4ccncc4)c[nH]c3=O)cc2)CC1 [Compound 22]
[1]
  inhibition at 30 µM: 24%
[2]
  inhibition at 30 µM: 6%
[3]
  inhibition at 30 µM: 13%
[4]
  inhibition at 30 µM: 0%
[5]
  inhibition at 30 µM: 33%
[6]
  inhibition at 30 µM: 84%
[7]
  inhibition at 30 µM: 1%
[8]
  inhibition at 30 µM: 71%
[9]
  inhibition at 30 µM: 46%
[10]
  inhibition at 30 µM: 93%
[11]
  inhibition at 30 µM: 88%
[12]
  inhibition at 30 µM: 8%
[13]
  inhibition at 30 µM: 41%

## Nc1cc(-c2ccnc3ccccc23)c[nH]c1=O [Compound 6]
[1]
  inhibition at 100 µM: 19%
[2]
  inhibition at 100 µM: 0%
[3]
  inhibition at 100 µM: 15%
[4]
  inhibition at 100 µM: 22%
[5]
  inhibition at 100 µM: 57%
[6]
  inhibition at 100 µM: 26%
[7]
  inhibition at 100 µM: 15%
[8]
  inhibition at 100 µM: 61%
[9]
  inhibition at 100 µM: 36%
[10]
  inhibition at 100 µM: 27%
[11]; compound at 100 µM
  inhibition at 100 µM: 69%
[12]
  inhibition at 100 µM: 22%
[13]
  inhibition at 100 µM: 10%

## COc1ncc(-c2ccncc2)cc1N [Compound 5, 6-Methoxy-3,4′-bipyridin-5-amine]
[1]
  inhibition at 100 µM: 18%
[2]
  inhibition at 100 µM: 0%
[3]
  inhibition at 100 µM: 22%
[4]
  inhibition at 100 µM: 20%
[5]
  inhibition at 100 µM: 36%
[6]
  inhibition at 100 µM: 1%
[7]
  inhibition at 100 µM: 12%
[8]
  inhibition at 100 µM: 35%
[9]
  inhibition at 100 µM: 26%
[10]
  inhibition at 100 µM: 15%
[11]; compound at 100 µM
  inhibition at 100 µM: 41%
[12]
  inhibition at 100 µM: 61%
[13]
  inhibition at 100 µM: 23%

## O=C(Nc1cc(-c2ccncc2)c[nH]c1=O)c1ccccc1 [Compound 16, N-(2-Oxo-5-(pyridin-4-yl)-1,2-dihydropyridin-3-yl)benzamide]
[1]
  inhibition at 30 µM: 9%
[2]
  inhibition at 30 µM: 4%
[3]
  inhibition at 30 µM: 12%
[4]
  inhibition at 30 µM: 12%
[5]
  inhibition at 30 µM: 29%
[6]
  inhibition at 30 µM: 24%
[7]
  inhibition at 30 µM: 5%
[8]
  inhibition at 30 µM: 24%
[9]
  inhibition at 30 µM: 30%
[10]
  inhibition at 30 µM: 55%
[11]; compound at 30 µM
  inhibition at 30 µM: 62%
[12]
  inhibition at 30 µM: 1%
[13]
  inhibition at 30 µM: 19%
